Paper PMC5643462, “Encrypted Antimicrobial Peptides from Plant Proteins” (Scientific Reports, 2017)
Like-named read-outs stand apart in the source and are kept apart here. No end group written: not given here.

Assays:
[1] = system: Moniliophthora perniciosa basidiospores; assay: Inhibition of M. perniciosa basidiospore germination; type: cell-based; conditions: 1 × 10^6 basidiospores mL^−1, one hour with peptide (256-0.5 µM), 24 °C, counted after 4 hours on agar slides, biological triplicates; for IC50: concentration at which at least 50% of basidiospores germination was inhibited, read-out: Inhibitory concentration IC50, M. perniciosa basidiospores germination; for Inhibitory concentration IC95, M. perniciosa basidiospores germination: concentration at which at least 95% of basidiospores germination was inhibited
Method: The antimicrobial potential of T. cacao IAPs for inhibiting M. perniciosa basidiospores was evaluated. Briefly, 1 × 10^6 basidiospores mL^−1 were incubated for one hour with different concentrations of T. cacao IAPs (256-0.5 µM), at 24 °C, in a final volume of 100 µL. Autoclaved dH20 was used as a control. After incubation, 3 droplets of 10 µL each were placed in a slide coated with agar (1.2% (w/v)). Slides were incubated for 4, 24 and 48 hours at 24 °C. Slides were visualized using a DMRXA light microscope (Leica). Approximately 150–200 basidiospores per droplet from each time point were counted and compared to the control condition, which was defined as 100% germination. All experiments were performed in biological triplicates, with 3 technical repetitions each.

human red blood cells = assay: Cytotoxicity: hemolysis of human red blood cells; type: cell-based
Method: The cytotoxicity of the selected IAPS was performed using human red blood cells in strict accordance with relevant guidelines and regulations (Ethical committee – UnB # 1.939.989). Different concentrations of IAPs (128 µM–0.5 µM) were incubated with a final concentration of 2.5 × 10^5 red blood cells.mL^−1. Briefly, 100 µL of red blood cells was incubated with 100 µL of different concentrations of each IAP, prepared in PBS, for 30 minutes at 37 °C, with constant shaking at 120 rpm. PBS and Triton X-100 0.1% (v/v) were used as negative and positive controls, respectively. After incubation, the solution was centrifuged at 900 × g for five minutes followed by transferring 50 µL of the supernatant to flat-bottom polystyrene 96-well micro plates containing 50 µL of PBS. Microplate reading was performed at a BioTek Multireader, using a wavelength of 540 nm. All tests were performed in 3 biological replicates, composed of 3 biological repetitions each. The obtained data was subtracted by the negative control and relative to the positive control, defined as 100% lysis.

[2] = Far-UV circular dichroism, helix percentage in buffer and with LUVs; type: physicochemical; conditions: room temperature, from [θ]222 nm, * = β-sheet structure
Method: DMPC and 2:1 DMPC:DMPG (w/w) were dissolved in chloroform and methanol (3:1 v/v) at 10 mg/mL, dried using a rotary evaporator and left 3 hours under high vacuum in a freeze dryer. Phospholipids were then dissolved in 20 mM Sodium phosphate – NaOH, 150 mM NaCl, pH 7.4 and hand-shaken until the formation of a cloudy solution, which was passed 19 times through a 100 nm polycarbonate membrane at 30 °C for the formation of large unilamelar vesicles (LUVs) using a mini-extruder (Avanti Polar Lipids). Phospholipid concentration was estimated according to the ammonium ferrothiocyanate method.
Experiments were conducted on a Jasco-J815 spectropolarimeter (Jasco International Co.). Spectra were acquired at room temperature from 200 to 260 nm as an average of 4 readings using a 0.1 cm path length cell, data pitch of 0.2 nm and a response time of 0.5 s. Data Scans of buffer and 2 mM DMPC and 2:1 DMPC:DMPG LUVs solutions were acquired and subtracted from each peptide data. Peptides were scanned at a concentration of 40 μM in buffer and then 50 fold excess of DMPC and 2:1 DMPC:DMPG LUVs were added, resulting in a molar ratio of 0.02 peptide/phospholipid. The spectra were converted to mean residue ellipticity and readings at [θ]222 nm were used to estimate helix percentages.

[3] = SC50 = IAP concentration that at least 50% of red blood cells remain intact, 128 µM–0.5 µM tested, PBS, 30 minutes, 37 °C, absorbance 540 nm

Substance	IC50 [1] [µM]	Inhibitory concentration IC95, M. perniciosa basidiospores germination [1] [µM]	Hemolytic activity (% ± SD) at 1 µM (human red blood cells) [%]	Hemolytic activity (% ± SD) at 2 µM (human red blood cells) [%]	Hemolytic activity (% ± SD) at 4 µM (human red blood cells) [%]	Hemolytic activity (% ± SD) at 8 µM (human red blood cells) [%]	Hemolytic activity (% ± SD) at 16 µM (human red blood cells) [%]	Hemolytic activity (% ± SD) at 32 µM (human red blood cells) [%]	Hemolytic activity (% ± SD) at 64 µM (human red blood cells)	Hemolytic activity of human red blood cells (%) SC50 (human red blood cells; [3]) [µM]	Hemolytic activity (% ± SD) at 128 µM (human red blood cells) [%]	Hemolytic activity of human red blood cells (%) SC50 (human red blood cells) [µM]	%Hel 2:1 DMPC/DMPG ([2]; 40 μM peptide + 2 mM 2:1 DMPC:DMPG LUVs (50 fold excess), pH 7.4 buffer) [%]	%Hel DMPC ([2]; 40 μM peptide + 2 mM DMPC LUVs (50 fold excess), pH 7.4 buffer) [%]	%Hel buffer ([2]; 40 μM peptide in 20 mM sodium phosphate, 150 mM NaCl, pH 7.4) [%]
GLWSTIKQKGKEAAIAAAKAAGQAALGAL-NH2 [DS01, Dermaseptin DS01, reference compound]	128	256	0.00 ± 0.00	0.19 ± 0.02	0.17 ± 0.04	0.03 ± 0.01	0.48 ± 0.12	0.79 ± 0.30	3.70 ± 1.34%	>128					
GSLHGFMYKYLKNMVLTLF-NH2 [At01]			0.00 ± 0.00	0.00 ± 0.00	0.00 ± 0.00	0.00 ± 0.00	0.19 ± 0.01	1.05 ± 0.22	5.04 ± 2.39%		14.6 ± 2.14	>128			
GSLHGFMYKYLKNMVLNLF-NH2 [Tc06]	32	64	0.00 ± 0.00	0.00 ± 0.00	0.00 ± 0.00	0.00 ± 0.00	0.01 ± 0.00	0.77 ± 0.23	1.18 ± 0.23%		7.67 ± 1.69	>128			
RVLKDVESALRESVANWKIVIG [Tc04, IAP from Theobroma cacao, Purple acid phosphatase 3]													36.3	15.8	14.3
GLYNFIKVLGRTVFGLYKQF-NH2 [At04]			0.00 ± 0.00	0.00 ± 0.00	0.00 ± 0.00	0.09 ± 0.04	0.40 ± 0.10	0.91 ± 0.20	4.12 ± 1.41%		13.8 ± 2.41	>128			
LHRLVKLVAALLRGYASKVDTH [Tc08]			0.11 ± 0.04	0.11 ± 0.09	0.27 ± 0.10	0.30 ± 0.05	2.00 ± 1.13	15.47 ± 1.58	28.81 ± 2.6 7%	>128					
IKLRNVLKYLFRIDVIKEDIL-NH2 [Tc03]			0.03 ± 0.00	0.04 ± 0.03	0.00 ± 0.00	0.17 ± 0.04	0.09 ± 0.01	0.67 ± 0.30	2.29 ± 1.18%		7.89 ± 1.44	>128			
GLLFKELQKLIRYQIFIGK-NH2 [Tc10]	32	64	0.00 ± 0.0	0.00 ± 0.0	0.18 ± 0.04	0.06 ± 0.02	0.00 ± 0.00	0.23 ± 0.10	0.68 ± 0.17%		4.56 ± 0.58	>128			
